Test results reported in patent US20260242419A1, “A CYCLIC PEPTIDE FOR TRAPPING INTERLEUKIN-1 BETA” (Merck Sharp & Dohme LLC, priority 2023, published 2026).
Starred links: 1 amine or outer side, 2 acyl side, 3 side chain; linkers in the order of their positions; H or OH if unused. Non-standard residues stand in square brackets, D forms with d. Residues, ends and D or L forms follow the SMILES beside them. Trp(4-Cl)(βS-Me) = C[C@@H](c1c[nH]c2cccc(Cl)c12)[C@H](N)C(=O)O; Trp(βS-Me,4-F) = C[C@@H](c1c[nH]c2cccc(F)c12)[C@H](N)C(=O)O; Bip(4'-COOH) = N[C@@H](Cc1ccc(-c2ccc(C(=O)O)cc2)cc1)C(=O)O; dPro(4R-Bzl(4-F)) = O=C(O)[C@H]1C[C@@H](Cc2ccc(F)cc2)CN1; Ala(pyrimidin-5-yl) = N[C@@H](Cc1cncnc1)C(=O)O; Phe(4-COOH) = N[C@@H](Cc1ccc(C(=O)O)cc1)C(=O)O; dαMeDab = C[C@](CCN[*:3])(N[*:1])C(=O)[*:2]; Pro(cis-4-F) = O=C(O)[C@@H]1C[C@H](F)CN1; X10 = C[C@@](CCN)(N[*:1])C(=O)[*:2]; cisHyp = O=C(O)[C@@H]1C[C@H](O)CN1; d(αMeD) = C[C@@](N)(CC(=O)O)C(=O)O; aIle = CC[C@@H](C)[C@H](N)C(=O)O; 4Pal = N[C@@H](Cc1ccncc1)C(=O)O; aThr = C[C@H](O)[C@H](N)C(=O)O; αMeK = C[C@](N)(CCCCN)C(=O)O; hSer = N[C@@H](CCO)C(=O)O; Dab = NCC[C@H](N)C(=O)O; Aib = CC(C)(N)C(=O)O; Sar = CNCC(=O)O

target: T1, IL-1β (Homo sapiens, UniProt P01584); assay: IL-6 assay in MRC5 cells: inhibition of IL-1β induced IL-6 secretion (AlphaLISA); assay type: cell-based; settings: inhibition of IL-1β induced IL-6 secretion in MRC5 cells; read-out: MRC5 IC50
T1 construct: purchased BioLegend 579404
Summary of the method: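 Compound was pre-incubated 1 h at ambient temperature with recombinant human IL-1β at 2λ EC80 before adding human lung fibroblast MRC5 cells (3000/well) in EMEM with 0.025% BSA. After overnight culture at 37 °C, 5% CO2, secreted IL-6 in conditioned medium was measured by AlphaLISA; IC50 from 4-parameter logistic fits.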

T1 sequence (P01584 117-269): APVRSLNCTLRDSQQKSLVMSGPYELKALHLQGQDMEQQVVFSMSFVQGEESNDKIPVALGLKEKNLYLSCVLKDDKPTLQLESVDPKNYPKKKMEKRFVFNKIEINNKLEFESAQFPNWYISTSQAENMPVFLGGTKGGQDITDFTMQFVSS

Compound	IC50
C[C@@H](c1c[nH]c2cccc(F)c12)[C@@H]1NC(=O)[C@@H]2C[C@H](O)CN2C(=O)CNC(=O)[C@H](Cc2ccc(C(=O)O)cc2)NC(=O)[C@H](Cc2ccncc2)NC(=O)[C@H](Cc2ccc(-c3ccc(C(=O)O)cc3)cc2)NC(=O)[C@H]2C[C@@H](Cc3ccc(F)cc3)CN2C(=O)CNC(=O)[C@H](CCN)NC(=O)[C@H](CCC(N)=O)NC(=O)[C@H](Cc2cncnc2)NC(=O)C(C)(C)NC(=O)[C@H](Cc2c[nH]c3ccccc23)NC(=O)[C@H](CO)NC(=O)C(C)(C)NC1=O [Example 127] (cyclo([Bip(4'-COOH)][4Pal][Phe(4-COOH)]G[cisHyp][Trp(βS-Me,4-F)][Aib]SW[Aib][Ala(pyrimidin-5-yl)]Q[Dab]G[dPro(4R-Bzl(4-F))]))	0.013 nM
C[C@@H](c1c[nH]c2cccc(F)c12)[C@@H]1NC(=O)[C@@H]2C[C@H](F)CN2C(=O)CNC(=O)[C@H](Cc2ccc(C(=O)O)cc2)NC(=O)[C@H](Cc2ccncc2)NC(=O)[C@H](Cc2ccc(-c3ccc(C(=O)O)cc3)cc2)NC(=O)[C@H]2C[C@@H](Cc3ccc(F)cc3)CN2C(=O)CNC(=O)[C@H](CCN)NC(=O)[C@H](CCC(N)=O)NC(=O)[C@H](Cc2cncnc2)NC(=O)[C@@](C)(CC(=O)O)NC(=O)[C@H](Cc2c[nH]c3ccccc23)NC(=O)[C@H](CO)NC(=O)C(C)(C)NC1=O [Example 128] (cyclo([Bip(4'-COOH)][4Pal][Phe(4-COOH)]G[Pro(cis-4-F)][Trp(βS-Me,4-F)][Aib]SW[d(αMeD)][Ala(pyrimidin-5-yl)]Q[Dab]G[dPro(4R-Bzl(4-F))]))	0.009 nM
C[C@@H](c1c[nH]c2cccc(F)c12)[C@@H]1NC(=O)[C@@H]2C[C@H](F)CN2C(=O)CNC(=O)[C@H](Cc2ccc(C(=O)O)cc2)NC(=O)[C@H](Cc2ccncc2)NC(=O)[C@H](Cc2ccc(-c3ccc(C(=O)O)cc3)cc2)NC(=O)[C@H]2C[C@@H](Cc3ccc(F)cc3)CN2C(=O)CN(C)C(=O)[C@H](CCN)NC(=O)[C@H](CCC(N)=O)NC(=O)[C@H](Cc2cncnc2)NC(=O)[C@](C)(CCCCN)NC(=O)[C@H](Cc2c[nH]c3ccccc23)NC(=O)[C@H](CCC(=O)O)NC(=O)C(C)(C)NC1=O [Example 132] (cyclo([Bip(4'-COOH)][4Pal][Phe(4-COOH)]G[Pro(cis-4-F)][Trp(βS-Me,4-F)][Aib]EW[αMeK][Ala(pyrimidin-5-yl)]Q[Dab][Sar][dPro(4R-Bzl(4-F))]))	0.015 nM
C[C@@H](c1c[nH]c2cccc(F)c12)[C@@H]1NC(=O)[C@@H]2C[C@H](F)CN2C(=O)CNC(=O)[C@H](Cc2ccc(C(=O)O)cc2)NC(=O)[C@H](Cc2ccncc2)NC(=O)[C@H](Cc2ccc(-c3ccc(C(=O)O)cc3)cc2)NC(=O)[C@H]2C[C@@H](Cc3ccc(F)cc3)CN2C(=O)CNC(=O)[C@H](CCN)NC(=O)[C@H](CCC(N)=O)NC(=O)[C@H](Cc2cncnc2)NC(=O)[C@](C)(CCCCN)NC(=O)[C@H](Cc2c[nH]c3ccccc23)NC(=O)[C@H](CCO)NC(=O)C(C)(C)NC1=O [Example 133] (cyclo([Bip(4'-COOH)][4Pal][Phe(4-COOH)]G[Pro(cis-4-F)][Trp(βS-Me,4-F)][Aib][hSer]W[αMeK][Ala(pyrimidin-5-yl)]Q[Dab]G[dPro(4R-Bzl(4-F))]))	0.021 nM
C[C@@H]1NC(=O)C(C)(C)NC(=O)[C@H]([C@@H](C)c2c[nH]c3cccc(F)c23)NC(=O)[C@@H]2C[C@H](F)CN2C(=O)CNC(=O)[C@H](Cc2ccc(C(=O)O)cc2)NC(=O)[C@H](Cc2ccncc2)NC(=O)[C@H](Cc2ccc(-c3ccc(C(=O)O)cc3)cc2)NC(=O)[C@H]2C[C@@H](Cc3ccc(F)cc3)CN2C(=O)CNC(=O)[C@H](CCN)NC(=O)[C@H](CCC(N)=O)NC(=O)[C@H](Cc2cncnc2)NC(=O)[C@](C)(CCCCN)NC(=O)[C@H](Cc2c[nH]c3ccccc23)NC1=O [Example 134] (cyclo([Bip(4'-COOH)][4Pal][Phe(4-COOH)]G[Pro(cis-4-F)][Trp(βS-Me,4-F)][Aib]AW[αMeK][Ala(pyrimidin-5-yl)]Q[Dab]G[dPro(4R-Bzl(4-F))]))	0.021 nM
CC(C)[C@@H]1NC(=O)C(C)(C)NC(=O)[C@H]([C@@H](C)c2c[nH]c3cccc(F)c23)NC(=O)[C@@H]2C[C@H](F)CN2C(=O)CNC(=O)[C@H](Cc2ccc(C(=O)O)cc2)NC(=O)[C@H](Cc2ccncc2)NC(=O)[C@H](Cc2ccc(-c3ccc(C(=O)O)cc3)cc2)NC(=O)[C@H]2C[C@@H](Cc3ccc(F)cc3)CN2C(=O)CNC(=O)[C@H](CCN)NC(=O)[C@H](CCC(N)=O)NC(=O)[C@H](Cc2cncnc2)NC(=O)[C@](C)(CCCCN)NC(=O)[C@H](Cc2c[nH]c3ccccc23)NC1=O [Example 135] (cyclo([Bip(4'-COOH)][4Pal][Phe(4-COOH)]G[Pro(cis-4-F)][Trp(βS-Me,4-F)][Aib]VW[αMeK][Ala(pyrimidin-5-yl)]Q[Dab]G[dPro(4R-Bzl(4-F))]))	0.035 nM

More lines, in order of falling IC50, values ahead:

IC50	Compound
0.039 nM	C[C@@H](c1c[nH]c2cccc(F)c12)[C@@H]1NC(=O)[C@@H]2C[C@H](F)CN2C(=O)CNC(=O)[C@H](Cc2ccc(C(=O)O)cc2)NC(=O)[C@H](Cc2ccncc2)NC(=O)[C@H](Cc2ccc(-c3ccc(C(=O)O)cc3)cc2)NC(=O)[C@H]2C[C@@H](Cc3ccc(F)cc3)CN2C(=O)CNC(=O)[C@H](CCN)NC(=O)[C@H](CCC(N)=O)NC(=O)[C@H](Cc2cncnc2)NC(=O)[C@](C)(CCN)NC(=O)[C@H](Cc2c[nH]c3ccccc23)NC(=O)[C@H](CO)NC(=O)C(C)(C)NC1=O [Example 130] (cyclo([Bip(4'-COOH)][4Pal][Phe(4-COOH)]G[Pro(cis-4-F)][Trp(βS-Me,4-F)][Aib]SW[X10][Ala(pyrimidin-5-yl)]Q[Dab]G[dPro(4R-Bzl(4-F))]))
0.034 nM	C[C@@H](c1c[nH]c2cccc(Cl)c12)[C@@H]1NC(=O)[C@@H]2C[C@H](F)CN2C(=O)CNC(=O)[C@H](Cc2ccc(C(=O)O)cc2)NC(=O)[C@H](Cc2ccncc2)NC(=O)[C@H](Cc2ccc(-c3ccc(C(=O)O)cc3)cc2)NC(=O)[C@H]2C[C@@H](Cc3ccc(F)cc3)CN2C(=O)CNC(=O)[C@H](CCN)NC(=O)[C@H](CCC(N)=O)NC(=O)[C@H](Cc2cncnc2)NC(=O)C(C)(C)NC(=O)[C@H](Cc2c[nH]c3ccccc23)NC(=O)[C@H](CO)NC(=O)C(C)(C)NC1=O [Example 139] (cyclo([Bip(4'-COOH)][4Pal][Phe(4-COOH)]G[Pro(cis-4-F)][Trp(4-Cl)(βS-Me)][Aib]SW[Aib][Ala(pyrimidin-5-yl)]Q[Dab]G[dPro(4R-Bzl(4-F))]))
0.027 nM	CC[C@@H](C)[C@@H]1NC(=O)C(C)(C)NC(=O)[C@H]([C@@H](C)c2c[nH]c3cccc(F)c23)NC(=O)[C@@H]2C[C@H](F)CN2C(=O)CNC(=O)[C@H](Cc2ccc(C(=O)O)cc2)NC(=O)[C@H](Cc2ccncc2)NC(=O)[C@H](Cc2ccc(-c3ccc(C(=O)O)cc3)cc2)NC(=O)[C@H]2C[C@@H](Cc3ccc(F)cc3)CN2C(=O)CNC(=O)[C@H](CCN)NC(=O)[C@H](CCC(N)=O)NC(=O)[C@H](Cc2cncnc2)NC(=O)[C@](C)(CCCCN)NC(=O)[C@H](Cc2c[nH]c3ccccc23)NC1=O [Example 136] (cyclo([Bip(4'-COOH)][4Pal][Phe(4-COOH)]G[Pro(cis-4-F)][Trp(βS-Me,4-F)][Aib][aIle]W[αMeK][Ala(pyrimidin-5-yl)]Q[Dab]G[dPro(4R-Bzl(4-F))]))
0.022 nM	C[C@@H](O)[C@@H]1NC(=O)C(C)(C)NC(=O)[C@H]([C@@H](C)c2c[nH]c3cccc(F)c23)NC(=O)[C@@H]2C[C@H](F)CN2C(=O)CNC(=O)[C@H](Cc2ccc(C(=O)O)cc2)NC(=O)[C@H](Cc2ccncc2)NC(=O)[C@H](Cc2ccc(-c3ccc(C(=O)O)cc3)cc2)NC(=O)[C@H]2C[C@@H](Cc3ccc(F)cc3)CN2C(=O)CNC(=O)[C@H](CCN)NC(=O)[C@H](CCC(N)=O)NC(=O)[C@H](Cc2cncnc2)NC(=O)[C@](C)(CCCCN)NC(=O)[C@H](Cc2c[nH]c3ccccc23)NC1=O [Example 137] (cyclo([Bip(4'-COOH)][4Pal][Phe(4-COOH)]G[Pro(cis-4-F)][Trp(βS-Me,4-F)][Aib]TW[αMeK][Ala(pyrimidin-5-yl)]Q[Dab]G[dPro(4R-Bzl(4-F))]))
0.021 nM	C[C@H](O)[C@@H]1NC(=O)C(C)(C)NC(=O)[C@H]([C@@H](C)c2c[nH]c3cccc(F)c23)NC(=O)[C@@H]2C[C@H](F)CN2C(=O)CNC(=O)[C@H](Cc2ccc(C(=O)O)cc2)NC(=O)[C@H](Cc2ccncc2)NC(=O)[C@H](Cc2ccc(-c3ccc(C(=O)O)cc3)cc2)NC(=O)[C@H]2C[C@@H](Cc3ccc(F)cc3)CN2C(=O)CNC(=O)[C@H](CCN)NC(=O)[C@H](CCC(N)=O)NC(=O)[C@H](Cc2cncnc2)NC(=O)[C@](C)(CCCCN)NC(=O)[C@H](Cc2c[nH]c3ccccc23)NC1=O [Example 138] (cyclo([Bip(4'-COOH)][4Pal][Phe(4-COOH)]G[Pro(cis-4-F)][Trp(βS-Me,4-F)][Aib][aThr]W[αMeK][Ala(pyrimidin-5-yl)]Q[Dab]G[dPro(4R-Bzl(4-F))]))
0.019 nM	C[C@@H](c1c[nH]c2cccc(F)c12)[C@@H]1NC(=O)[C@@H]2C[C@H](F)CN2C(=O)CNC(=O)[C@H](Cc2ccc(C(=O)O)cc2)NC(=O)[C@H](Cc2ccncc2)NC(=O)[C@H](Cc2ccc(-c3ccc(C(=O)O)cc3)cc2)NC(=O)[C@H]2C[C@@H](Cc3ccc(F)cc3)CN2C(=O)CNC(=O)[C@H](CCN)NC(=O)[C@H](CCC(N)=O)NC(=O)[C@H](Cc2cncnc2)NC(=O)C(C)(C)NC(=O)[C@H](Cc2c[nH]c3ccccc23)NC(=O)[C@H](CO)NC(=O)[C@](C)(CCN)NC1=O [Example 129] (cyclo([Bip(4'-COOH)][4Pal][Phe(4-COOH)]G[Pro(cis-4-F)][Trp(βS-Me,4-F)][X10]SW[Aib][Ala(pyrimidin-5-yl)]Q[Dab]G[dPro(4R-Bzl(4-F))]))
0.019 nM	C[C@@H](c1c[nH]c2cccc(F)c12)[C@@H]1NC(=O)[C@@H]2C[C@H](F)CN2C(=O)CNC(=O)[C@H](Cc2ccc(C(=O)O)cc2)NC(=O)[C@H](Cc2ccncc2)NC(=O)[C@H](Cc2ccc(-c3ccc(C(=O)O)cc3)cc2)NC(=O)[C@H]2C[C@@H](Cc3ccc(F)cc3)CN2C(=O)CNC(=O)[C@H](CCN)NC(=O)[C@H](CCC(N)=O)NC(=O)[C@H](Cc2cncnc2)NC(=O)C(C)(C)NC(=O)[C@H](Cc2c[nH]c3ccccc23)NC(=O)[C@H](CO)NC(=O)[C@@](C)(CCN)NC1=O [Example 131] (cyclo([Bip(4'-COOH)][4Pal][Phe(4-COOH)]G[Pro(cis-4-F)][Trp(βS-Me,4-F)][dαMeDab]SW[Aib][Ala(pyrimidin-5-yl)]Q[Dab]G[dPro(4R-Bzl(4-F))]))
